The results in this text go back to patent US10874743B2, “IRAK degraders and uses thereof” (Kymera Therapeutics, Inc., priority 2017, dated 2020).

In test [1] the target is T1, IRAK4 (Homo sapiens, UniProt Q9NWZ3).
T1 sequence (Q9NWZ3 1-460): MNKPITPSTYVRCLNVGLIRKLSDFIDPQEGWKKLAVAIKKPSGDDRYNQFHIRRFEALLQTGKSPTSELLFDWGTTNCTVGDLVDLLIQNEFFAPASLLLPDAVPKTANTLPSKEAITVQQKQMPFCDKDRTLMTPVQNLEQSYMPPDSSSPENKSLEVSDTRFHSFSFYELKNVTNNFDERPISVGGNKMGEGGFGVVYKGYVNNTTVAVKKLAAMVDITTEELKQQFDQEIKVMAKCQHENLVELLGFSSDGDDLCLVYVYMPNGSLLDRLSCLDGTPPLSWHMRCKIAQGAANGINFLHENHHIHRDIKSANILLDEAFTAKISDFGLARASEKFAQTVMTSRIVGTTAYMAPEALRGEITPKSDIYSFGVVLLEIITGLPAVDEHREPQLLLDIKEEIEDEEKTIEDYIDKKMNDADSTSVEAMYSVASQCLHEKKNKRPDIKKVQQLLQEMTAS
The test can be described thus: OCI-LY-10 degradation assay (western blot, % IRAK4 degraded after 4 hours). In kind it is cell-based. Set-up: endogenous in cells; host or cells: OCI-LY10. To be noted: OCI-LY10 cells, 4 hours; for OCI-LY10 % IRAK4 Degradation (0.01 uM): 0.01 uM compound; for OCI-LY10 % IRAK4 Degradation (0.1 uM): 0.1 uM compound; for OCI-LY10 % IRAK4 Degradation (1 uM): 1 uM compound. The procedure, abridged:
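OCI-LY10 cells (RPMI-1640, 20% FBS, 55 μM 2-ME) treated with compound at 0.003-10 μM final for 4 h at 37° C, then lysed in RIPA buffer. IRAK4 level read by fluorescent western blot (20-25 μg protein) and binned as % degraded: A >50%, B >20-50%, C <20%.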

The target in test [2] is T1, IRAK4. Nature of the test: OCI-LY-10 MSD assay for IRAK4 DC50. In kind it is cell-based. Set-up: endogenous in cells; host or cells: OCI-LY10. The conditions noted are these: OCI-LY10 cells, 4 hr incubation, concentration required to degrade 50% of protein. In a few lines: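 OCI-Ly10 cells were exposed to compound for 4 hr across a 3-fold, 8-point dilution series. Lysates were made in RIPA buffer, and IRAK4 remaining was measured by MSD sandwich immunoassay with anti-IRAK4 capture and detection antibodies. DC50 was taken from a four-parameter logistic fit.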

As usually defined, the DC50 is the midpoint of the concentration-degradation curve. Read a low DC50 as degradation at low concentration.

Consider `NC(=O)c1nn(-c2ccc(CNCC3CN(CCOCCNc4cccc5c4C(=O)N(C4CCC(=O)NC4=O)C5=O)CCO3)cc2)cc1NC(=O)c1coc(-c2ccnc(NCC(F)(F)F)c2)n1` (centres unmarked) [I-305, N-[3-carbamoyl-1-[4-[[[4-[2-[2-[[2-(2,6-dioxo-3-piperidyl)-1,3-dioxo-isoindolin-4-yl]amino]ethoxy]ethyl]morpholin-2-yl]methylamino]methyl]phenyl]pyrazol-4-yl]-2-[2-(2,2,2-trifluoroethylamino)-4-pyridyl]oxazole-4-carboxamide], for which, in test [1], the “OCI-LY10 % IRAK4 Degradation (0.01 uM)” value was “A (>50% degradation)”, the “OCI-LY10 % IRAK4 Degradation (0.1 uM)” value is listed as “A (>50% degradation)” and the “OCI-LY10 % IRAK4 Degradation (1 uM)” value is on record as “A (>50% degradation)”. This compound also displayed a DC50 in test [2] below 50 nM.

On to `CN(CCOCCOCCCc1ccc2c(c1)C(=O)N(C1CCC(=O)NC1=O)C2=O)Cc1ccc(-n2cc(NC(=O)c3coc(-c4ccnc(NCC5CC5)c4)n3)c(C(N)=O)n2)cc1` (centres unmarked) [I-308], for which, in test [1], the “OCI-LY10 % IRAK4 Degradation (0.01 uM)” value is on record as “B (>20-50% degradation)”, the “OCI-LY10 % IRAK4 Degradation (0.1 uM)” value is “A (>50% degradation)” and the “OCI-LY10 % IRAK4 Degradation (1 uM)” value is on record as “A (>50% degradation)”. Besides, the DC50 in test [2] lay within 50 to 100 nM.

In the case of `NC(=O)c1nn(-c2ccc(CNCCOCCOCCn3c(=O)n(C4CCC(=O)NC4=O)c4ccccc43)cc2)cc1NC(=O)c1coc(-c2ccnc(NCC3CC3)c2)n1` (centres unmarked) [I-319], in test [1], the “OCI-LY10 % IRAK4 Degradation (0.01 uM)” value is on record as “B (>20-50% degradation)”, the “OCI-LY10 % IRAK4 Degradation (0.1 uM)” value is listed as “A (>50% degradation)” and the “OCI-LY10 % IRAK4 Degradation (1 uM)” value was “A (>50% degradation)”. Moreover, the DC50 in test [2] was below 50 nM.

As for `NC(=O)c1nn(-c2ccc(CNCCOCCCc3cccc4c3C(=O)N(C3CCC(=O)NC3=O)C4=O)cc2)cc1NC(=O)c1coc(-c2ccnc(NCC(F)(F)F)c2)n1` (centres unmarked) [I-320], in test [1], the “OCI-LY10 % IRAK4 Degradation (0.01 uM)” value is listed as “C (<20% degradation)”, the “OCI-LY10 % IRAK4 Degradation (0.1 uM)” value is “B (>20-50% degradation)” and the “OCI-LY10 % IRAK4 Degradation (1 uM)” value is listed as “B (>20-50% degradation)”. Further, the 50% degradation concentration (DC50) in test [2] was above 1000 nM.

Take `NC(=O)c1nn(-c2ccc(CNCCOCCOCCCc3cccc4c3C(=O)N(C3CCC(=O)NC3=O)C4=O)cc2)cc1NC(=O)c1coc(-c2ccnc(NCC(F)(F)F)c2)n1` (centres unmarked) [I-321]: in test [1], the “OCI-LY10 % IRAK4 Degradation (0.01 uM)” value is “B (>20-50% degradation)”, the “OCI-LY10 % IRAK4 Degradation (0.1 uM)” value is recorded as “A (>50% degradation)” and the “OCI-LY10 % IRAK4 Degradation (1 uM)” value is “A (>50% degradation)”. Also, in test [2], the DC50 is below 50 nM.

Take `Cn1c(=O)n(C2CCC(=O)NC2=O)c2cccc(CCCOCCOCCNCc3ccc(-n4cc(NC(=O)c5coc(-c6ccnc(NCC7CC7)c6)n5)c(C(F)F)n4)cc3)c21` (centres unmarked) [I-332]: in test [1], the “OCI-LY10 % IRAK4 Degradation (0.01 uM)” value is “A (>50% degradation)”, the “OCI-LY10 % IRAK4 Degradation (0.1 uM)” value is “A (>50% degradation)” and the “OCI-LY10 % IRAK4 Degradation (1 uM)” value is “A (>50% degradation)”. For the same compound, the DC50 in test [2] is below 50 nM.

Consider `O=C1CCC(N2C(=O)c3cccc(OCc4cn(CCOCCOCCNCc5ccc(-n6cc(NC(=O)c7coc(-c8ccnc(NCC9CC9)c8)n7)c(C(F)F)n6)cc5)nn4)c3C2=O)C(=O)N1` (centres unmarked) [I-344], for which, in test [1], the “OCI-LY10 % IRAK4 Degradation (0.01 uM)” value is listed as “C (<20% degradation)”, the “OCI-LY10 % IRAK4 Degradation (0.1 uM)” value is given as “A (>50% degradation)” and the “OCI-LY10 % IRAK4 Degradation (1 uM)” value is reported as “A (>50% degradation)”. This compound also yielded a DC50 in test [2] of 50 to 100 nM.

On to `O=C1CCC(N2C(=O)c3cccc(NCCOCCN4CC5(CN(CCOCCNCc6ccc(-n7cc(NC(=O)c8coc(-c9ccnc(NCC%10CC%10)c9)n8)c(C(F)F)n7)cc6)C5)C4)c3C2=O)C(=O)N1` (centres unmarked) [I-350], for which, in test [1], the “OCI-LY10 % IRAK4 Degradation (0.01 uM)” value was “C (<20% degradation)”, the “OCI-LY10 % IRAK4 Degradation (0.1 uM)” value is reported as “C (<20% degradation)” and the “OCI-LY10 % IRAK4 Degradation (1 uM)” value was “B (>20-50% degradation)”. This compound registered a DC50 in test [2] above 1000 nM.
